# Laboratory results as given in patent US12037317B2, “Synthesis of 3-hydroxybutyryl 3-hydroxybutyrate and related compounds” (Buck Institute for Research on Aging, priority 2018, dated 2024).
# pIC50: −log10 of the molar value. Entries after “also recorded” stand apart in the source; their conditions may differ.
# Assays:
# [1] = system: T1, histone deacetylases (HDAC); assay: in vitro HDAC assay (Fluor de Lys Green kit, Enzo); format: biochemical; settings: sodium salt
# T1 construct: other: sodium salt; Fluor de Lys Green kit; same assay as S-BHB
# Method: (§1) The activity of S-BHB and R-BHB enantiomers in inhibiting histone deacetylases was tested. This is an in vitro HDAC assay performed using the sodium salt of S-BHB and R-BHB with a commercial assay kit, Fluor de Lys Green from Enzo.
# [2] = disclosed in co-owned U.S. Provisional Application No. 62/535,754; cited from earlier work
# [3] = system: histone deacetylases (HDAC); assay: in vitro HDAC assay (Fluor de Lys Green kit, Enzo); format: biochemical; settings: comparison with a different, previously published assay
# Method: as §1
# [4] = ingested as a drink, compared to equivalent calories as carbohydrate; cited from earlier work
# [5] = humans on a normal diet, ingested orally; cited from earlier work
SMILES,inhibition of deacetylase activity (in words) [1],maximum inhibition of HDAC activity ([1]; same assay as S-BHB),serum half-life compared to the R-enantiomer [2],"potency for HDAC inhibition relative to published potency of R-BHB in a different assay (Shimazu et al., Science 2013) [3]","pIC50 ([1]; Fluor de Lys Green kit, read-out: HDAC inhibition IC50)",performance in cycling time-trial test [4],level of ketosis [5]
"C[C@@H](O)CC(=O)O [R-BHB, R-β-Hydroxybutyrate, reference compound]",partial inhibition,about 50%,,,,,
"C[C@H](O)CC(=O)O [S-BHB, (S)-β-hydroxybutyric acid]",even more effective than R-BHB; also recorded: dose-dependent inhibition,,substantially improved,≤ 2 fold,2.14,,
"C[C@@H](O)CCOC(=O)C[C@@H](C)O [R-3-hydroxybutyryl R-3-hydroxybutyrate, (R) 3-hydroxybutyryl (R) 3-hydroxy butyrate]",,,,,,improved performance,~6000 µM
